Experimental data taken from patent US9232796B2, “Herbicidal compositions comprising 4-amino-3-chloro-5-fluoro-6-(4-chloro-2-fluoro-3-methoxyphenyl) pyridine-2-carboxylic acid or a derivative thereof and acetyl-CoA carboxylase (ACCase) inhibitors” (DOW AGROSCIENCES LLC, priority 2012, dated 2016).

Assays:
[1] = test system: IPOHE; assay: Example V (second) postemergence foliar-applied ternary mixtures, greenhouse, direct seeded rice weeds; type: in vivo, Ipomoea hederacea Jacq.; details: 28 gai/ha
Method: (§1) The treated plants and control plants were placed in a greenhouse as described above and watered by sub-irrigation to prevent wash-off of the test compounds. After approximately 3 weeks, the condition of the test plants as compared with that of the untreated plants was determined visually and scored on a scale of 0 to 100 percent where 0 corresponds to no injury or growth inhibition and 100 corresponds to complete kill.
(§2) Colby's equation was used to determine the herbicidal effects expected from the mixtures (Colby, S. R. 1967. Calculation of the synergistic and antagonistic response of herbicide combinations. Weeds 15:20-22.).
(§3) The following equation was used to calculate the expected activity of mixtures containing three active ingredients, A, B, and C: Expected=A+B+C−((A×B+A×C+B×C)/100)+(A×B×C/10000)

[2] = test system: CYPES; assay: as above; type: in vivo, Cyperus esculentus L.; details: 28 gai/ha
Method: as §1, §2, §3

[3] = test system: KCHSC; assay: Example IV postemergence foliar-applied, greenhouse, cereal crops weeds; type: in vivo, Kochia scoparia (L.) Schrad.
Method: (§4) Seeds of the desired test plant species were planted in Sun Gro MetroMix® 306 planting mixture, which typically has a pH of 6.0 to 6.8 and an organic matter content of about 30 percent, in plastic pots with a surface area of 103.2 square centimeters (cm^2). […] The plants were grown for 7-36 days in a greenhouse with an approximate 14 hour photoperiod which was maintained at about 18° C. during the day and about 17° C. during the night. Nutrients and water were added on a regular basis and supplemental lighting was provided with overhead metal halide 1000-Watt lamps as necessary. The plants were employed for testing when they reached the second or third true leaf stage.
(§5) Treatments consisted of the benzyl ester of 4-amino-3-chloro-5-fluoro-6-(4-chloro-2-fluoro-3-methoxy-phenyl)pyridine-2-carboxylic acid (Compound A), formulated as an SC, a second cereal herbicide alone and then both in combination.
(§6) Other herbicidal components were applied on an active ingredient basis and included acetyl-CoA carboxylase (ACCase)-inhibiting herbicides clodinafop-propargyl, fenoxaprop-P-ethyl, pinoxaden and tralkoxydim.
(§7) Measured aliquots of benzyl ester of 4-amino-3-chloro-5-fluoro-6-(4-chloro-2-fluoro-3-methoxy-phenyl)pyridine-2-carboxylic acid (Compound A) were placed in 25 milliliter (mL) glass vials and diluted in a volume of 1.25% (v/v) Agri-Dex® crop oil concentrate to obtain stock solutions. Compound requirements are based upon a 12 mL application volume at a rate of 187 liters per hectare (L/ha). […] Formulated compounds were applied to the plant material with an overhead Mandel track sprayer equipped with an 8002E nozzle calibrated to deliver 187 L/ha over an application area of 0.503 square meters (m^2) at a spray height of 18 inches (46 cm) above average plant canopy. Control plants were sprayed in the same manner with the solvent blank.
as §1, with “20-22 days,” for “approximately 3 weeks,”, “control” for “untreated”, “injury” for “injury or growth inhibition”
as §2
(§8) The following equation was used to calculate the expected activity of mixtures containing two active ingredients, A and B: Expected=A+B−(A×B/100)

[4] = test system: APESV; assay: as above; type: in vivo, Apera spica-venti (L.) Beauv.
Method: as §4, §5, §6, §7
as §1, with “20-22 days,” for “approximately 3 weeks,”, “control” for “untreated”, “injury” for “injury or growth inhibition”
as §2, §8

[5] = test system: PHAMI; assay: as above; type: in vivo, Phalaris minor Retz.
Method: as §4, §5, §6, §7
as §1, with “20-22 days,” for “approximately 3 weeks,”, “control” for “untreated”, “injury” for “injury or growth inhibition”
as §2, §8

[6] = test system: ECHCO; assay: Example V (second) postemergence foliar-applied ternary mixtures, greenhouse, direct seeded rice weeds; type: in vivo, Echinochloa colona (L.) Link; details: 115 gai/ha
Method: as §1, §2, §3

[7] = test system: ECHCG; assay: as above; type: in vivo, Echinochloa crus-galli (L.) Beauv.; details: 105 gae/ha
Source text: Seeds or nutlets of the desired test plant species were planted in a soil matrix prepared by mixing a sandy loam or loam soil (e.g., 32 percent silt, 23 percent clay, and 45 percent sand, with a pH of about 6.5 and an organic matter content of about 1.9 percent) and calcareous grit in an 80 to 20 ratio. The soil matrix was contained in plastic pots with a volume of 1 quart and a surface area of 83.6 square centimeters (cm^2). When required to ensure good germination and healthy plants, a fungicide treatment and/or other chemical or physical treatment was applied. The plants were grown for 8-22 days in a greenhouse with an approximate 14 hr. photoperiod which was maintained at about 29° C. during the day and 26° C. during the night. Nutrients (Peters Excel® 15-5-15 5-Ca 2-Mg and iron chelate) were applied in the irrigation solution as needed and water was added on a regular basis. Supplemental lighting was provided with overhead metal halide 1000-Watt lamps as necessary. The plants were employed for testing when they reached the first through fourth true leaf stage.
Treatments consisted of the benzyl ester of 4-amino-3-chloro-5-fluoro-6-(4-chloro-2-fluoro-3-methoxy-phenyl)pyridine-2-carboxylic acid (Compound A), formulated as an SC (suspension concentrate), an ACCase inhibitor, and a third herbicidal component, each applied alone and in ternary combination. Forms of compound A were applied on an acid equivalent basis.
The ACCase inhibitor component was applied on an active ingredient basis and included cyhalofop-R-butyl formulated as Clincher® SF, fenoxaprop-p-ethyl formulated as RiceStar® HT, and profoxydim formulated as Aura® 20EC. Other herbicidal components were applied on an active ingredient or acid equivalent basis depending on the compound and included penoxsulam formulated as Grasp® SC, bentazon sodium formulated as Basagran®, triclopyr […] (TEA) salt formulated as Grandstand® R, bispyribac sodium formulated as Regiment® 80WP, imazamox ammonium formulated as Beyond®, benzobicyclon, quinclorac formulated as Facet® 75DF, glyphosate dimethylammonium (DMA) salt formulated as Durango® DMA, glufosinate ammonium formulated as Ignite® 280, fentrazamide formulated as an emulsifiable concentrate (EC), propyrisulfuron formulated as Zeta One®, and indanofan (technical grade material).
Treatment requirements were calculated based upon the rates being tested, the concentration of active ingredient or acid equivalent in the formulation, and a 12 mL application volume at a rate of 187 L/ha.
For treatments comprised of formulated compounds, measured amounts of compounds were placed individually in 25 mL glass vials and diluted in a volume of 1.25% (v/v) Agri-Dex® crop oil concentrate to obtain 12× stock solutions. […] Application solutions were prepared by adding an appropriate amount of each stock solution (e.g., 1 mL) and diluted to the appropriate final concentrations with the addition of 9 mL of an aqueous mixture of 1.25% (v/v) crop oil concentrate so that the final spray solutions contained 1.25% (v/v) crop oil concentrate.
As required, additional water and/or 97:3 v/v acetone/DMSO was added to individual application solutions so that the final acetone and DMSO concentrations of the application solutions being compared were 8.1% and 0.25%, respectively.
All stock solutions and applications solutions were visually inspected for compound compatibility prior to application. Spray solutions were applied to the plant material with an overhead Mandel track sprayer equipped with a 8002E nozzles calibrated to deliver 187 L/ha over an application area of 0.503 m^2 at a spray height of 18 inches (46 cm) above average plant canopy height. Control plants were sprayed in the same manner with the solvent blank.
The treated plants and control plants were placed in a greenhouse as described above and watered by sub-irrigation to prevent wash-off of the test compounds. […]

[8] = test system: LEFCH; assay: as above; type: in vivo, Leptochloa chinensis (L.) Nees; details: 420 gai/ha
Method: as §1, §2, §3

Compound: COc1cc(OC)nc(Oc2cccc(Oc3nc(OC)cc(OC)n3)c2C(=O)O)n1 [Bispyribac sodium]
- Visual Weed Control (%) - 21 DAA IPOHE Obs [1]: 60%
- Visual Weed Control (%) - 21 DAA CYPES Obs [2]: 20%

Compound: CCOC(=O)[C@@H](C)Oc1ccc(Oc2nc3ccc(Cl)cc3o2)cc1 [Fenoxaprop-P-ethyl, ethyl(2R)-2-[4-[(6-chloro-2-benzoxazolyl)oxy]phenoxy]propanoate]
- Visual Weed Control (%) - 21 DAA KCHSC Obs ([3]; Fenoxaprop-P-ethyl 23 gai/ha): 0%
- Visual Weed Control (%) - 21 DAA KCHSC Obs ([3]; Fenoxaprop-P-ethyl 46 gai/ha): 0%
- Visual Weed Control (%) - 21 DAA APESV Obs ([4]; Fenoxaprop-P-ethyl 23 gai/ha): 50%
- Visual Weed Control (%) - 21 DAA APESV Obs ([4]; Fenoxaprop-P-ethyl 46 gai/ha): 83%
- Visual Weed Control (%) - 21 DAA PHAMI Obs ([5]; Fenoxaprop-P-ethyl 23 gai/ha): 10%
- Visual Weed Control (%) - 21 DAA PHAMI Obs ([5]; Fenoxaprop-P-ethyl 46 gai/ha): 45%

Compound: CP(=O)(O)CCC(N)C(=O)O (centres unmarked) [Glufosinate ammonium]
- Visual Weed Control (%) - 21 DAA ECHCO Obs [6]: 0%

Compound: CNC.O=C(O)CNCP(=O)(O)O [Glyphosate DMA]
- Visual Weed Control (%) - 21 DAA ECHCG Obs [7]: 23%
- Visual Weed Control (%) - 21 DAA LEFCH Obs [8]: 45%
